Legend:
LOX IMVI = assay: NCI drug screen, LOX IMVI; format: cell-based, human; settings: LOX IMVI (Melanoma); 1.00E−5 Molar
Description: (§1) In brief, cellular protein levels were determined after 48 hours of drug exposure by sulforhodamine B colorimetry. Through the use of a time 0 cell control, the cell growth can be determined for each cell line thus allowing calculations of the 50% growth inhibitory concentration (GI50), the total growth inhibition (TGI), and the 50% lethal concentration (LC50). Comparison to plates not exposed to drug permits determination of concentration and times of exposure conferring 50% net growth inhibition (GI50), TGI, and 50% cell kill (LC50).
(§2) The screening system in United State National Cancer Institute (NCI) is consisted of 60 kinds of different human cancer cells, which can be used to assay the growth-inhibiting ability or cell toxicity of a compound against various cancer and tumor at a certain concentration.

CCRF-CEM = assay: NCI drug screen, CCRF-CEM; format: cell-based, human; settings: CCRF-CEM (Leukemia); 1.00E−5 Molar
Description: as §1, §2

OVCAR-3 = assay: NCI drug screen, OVCAR-3; format: cell-based, human; settings: OVCAR-3 (Ovarian Cancer); 1.00E−5 Molar
Description: as §1, §2

OVCAR-5 = assay: NCI drug screen, OVCAR-5; format: cell-based, human; settings: OVCAR-5 (Ovarian Cancer); 1.00E−5 Molar
Description: as §1, §2

786-0 = assay: NCI drug screen, 786-0; format: cell-based, human; settings: 786-0 (Renal Cancer); 1.00E−5 Molar
Description: as §1, §2

TK-10 = assay: NCI drug screen, TK-10; format: cell-based, human; settings: TK-10 (Renal Cancer); 1.00E−5 Molar
Description: as §1, §2

K562 = assay: NCI drug screen, K562; format: cell-based, human; settings: K562 (Leukemia); 1.00E−5 Molar
Description: as §1, §2

U251 = assay: NCI drug screen, U251; format: cell-based, human; settings: U251 (CNS Cancer); 1.00E−5 Molar
Description: as §1, §2

NCI-H460 = assay: NCI drug screen, NCI-H460; format: cell-based, human; settings: NCI-H460 (Non-Small Cell Lung Cancer); 1.00E−5 Molar
Description: as §1, §2

COLO 205 = assay: NCI drug screen, COLO 205; format: cell-based, human; settings: COLO 205 (Colon Cancer); 1.00E−5 Molar
Description: as §1, §2

NCI-H23 = assay: NCI drug screen, NCI-H23; format: cell-based, human; settings: NCI-H23 (Non-Small Cell Lung Cancer); 1.00E−5 Molar
Description: as §1, §2

HCT-15 = assay: NCI drug screen, HCT-15; format: cell-based, human; settings: HCT-15 (Colon Cancer); 1.00E−5 Molar
Description: as §1, §2

NCI-H322M = assay: NCI drug screen, NCI-H322M; format: cell-based, human; settings: NCI-H322M (Non-Small Cell Lung Cancer); 1.00E−5 Molar
Description: as §1, §2

NCI-H226 = assay: NCI drug screen, NCI-H226; format: cell-based, human; settings: NCI-H226 (Non-Small Cell Lung Cancer); 1.00E−5 Molar
Description: as §1, §2

UO-31 = assay: NCI drug screen, UO-31; format: cell-based, human; settings: UO-31 (Renal Cancer); 1.00E−5 Molar
Description: as §1, §2

NCI drug screen, A489 = format: cell-based, human; settings: A489 (Renal Cancer); 1.00E−5 Molar
Description: as §1, §2

HT29 = assay: NCI drug screen, HT29; format: cell-based, human; settings: HT29 (Colon Cancer); 1.00E−5 Molar
Description: as §1, §2

KM12 = assay: NCI drug screen, KM12; format: cell-based, human; settings: KM12 (Colon Cancer); 1.00E−5 Molar
Description: as §1, §2

HL-60(TB) = assay: NCI drug screen, HL-60(TB); format: cell-based, human; settings: HL-60(TB) (Leukemia); 1.00E−5 Molar
Description: as §1, §2

[1] = tested on: 60 kinds of different human cancer cells; assay: NCI in vitro 60-cell Drug Screen, whole panel; format: cell-based; settings: 1.00E−5 Molar; for Growth Percent, Mean: mean over tested cell lines; for growth-inhibiting effect against cancer cells, by cancer type: NCI's screen
Description: as §1
From the data analysis it follows that approximately 95% of the actives (potent anticancer drugs) from the 60 cell line screen can be identified. By these criteria, five compounds (each with its certification number, refer to FIG. 4) of the invention were reported that having anticancer activity.
as §2

SW-620 = assay: NCI drug screen, SW-620; format: cell-based, human; settings: SW-620 (Colon Cancer); 1.00E−5 Molar
Description: as §1, §2

A549/ATCC = assay: NCI drug screen, A549/ATCC; format: cell-based, human; settings: A549/ATCC (Non-Small Cell Lung Cancer); 1.00E−5 Molar
Description: as §1, §2

OVCAR-4 = assay: NCI drug screen, OVCAR-4; format: cell-based, human; settings: OVCAR-4 (Ovarian Cancer); 1.00E−5 Molar
Description: as §1, §2

PC-3 = assay: NCI drug screen, PC-3; format: cell-based, human; settings: PC-3 (Prostate Cancer); 1.00E−5 Molar
Description: as §1, §2

MDA-MB-231/ATCC = assay: NCI drug screen, MDA-MB-231/ATCC; format: cell-based, human; settings: MDA-MB-231/ATCC (Breast Cancer); 1.00E−5 Molar
Description: as §1, §2

SN12C = assay: NCI drug screen, SN12C; format: cell-based, human; settings: SN12C (Renal Cancer); 1.00E−5 Molar
Description: as §1, §2

MDA-MB-468 = assay: NCI drug screen, MDA-MB-468; format: cell-based, human; settings: MDA-MB-468 (Breast Cancer); 1.00E−5 Molar
Description: as §1, §2

MOLT-4 = assay: NCI drug screen, MOLT-4; format: cell-based, human; settings: MOLT-4 (Leukemia); 1.00E−5 Molar
Description: as §1, §2

HCC-2998 = assay: NCI drug screen, HCC-2998; format: cell-based, human; settings: HCC-2998 (Colon Cancer); 1.00E−5 Molar
Description: as §1, §2

RXF 393 = assay: NCI drug screen, RXF 393; format: cell-based, human; settings: RXF 393 (Renal Cancer); 1.00E−5 Molar
Description: as §1, §2

NCI/ADR-RES = assay: NCI drug screen, NCI/ADR-RES; format: cell-based, human; settings: for Growth Percent: NCI/ADR-RES (Ovarian Cancer), 1.00E−5 Molar; for drug-resistance against adriamycin (ADR): human multiple drug-resistant cell NCI/ADR-RES
Description: as §1, §2

MDA-MB-435 = assay: NCI drug screen, MDA-MB-435; format: cell-based, human; settings: MDA-MB-435 (Melanoma); 1.00E−5 Molar
Description: as §1, §2

Compound | Growth Percent (LOX IMVI) [%] | Growth Percent (OVCAR-3) [%] | Growth Percent (OVCAR-5) [%] | Growth Percent (786-0) [%] | Growth Percent (TK-10) [%] | Growth Percent (U251) [%] | Growth Percent (NCI-H460) [%] | Growth Percent (NCI-H23) [%] | Growth Percent (HCT-15) [%] | Growth Percent (NCI-H322M) [%] | Growth Percent (NCI-H226) [%] | Growth Percent (UO-31) [%] | Growth Percent (NCI drug screen, A489) [%] | Growth Percent (HT29) [%] | Growth Percent (KM12) [%] | Growth Percent (HL-60(TB)) [%] | Growth Percent, Mean [1] [%] | Growth Percent (SW-620) [%] | Growth Percent (OVCAR-4) [%] | Growth Percent (MDA-MB-231/ATCC) [%] | further results
Cc1ccc(C(=O)Nc2ccc3c(c2NC(=O)c2ccc(C)cc2)C(=O)c2ccccc2C3=O)cc1 [CC-04, 1,2-bis-(4-methylbenzamido)-anthraquinone] | 84.41 | 97.90 | 110.18 | 116.17 | 124.91 | 91.73 | 88.62 | 90.57 | 102.44 | 97.74 | 91.14 | 66.54 | 124.08 | 99.39 | 94.21 | 73.11 | 96.19 | 93.79 | 104.32 | 93.29 | Growth Percent (CCRF-CEM): 79.02%; Growth Percent (K562): 107.54%; Growth Percent (COLO 205): 108.57%; Growth Percent (A549/ATCC): 90.46%; Growth Percent (PC-3): 82.91%; Growth Percent (SN12C): 98.59%; Growth Percent (MDA-MB-468): 104.17%; Growth Percent (MOLT-4): 89.63%; Growth Percent (HCC-2998): 84.68%; Growth Percent (RXF 393): 88.25%
Cc1ccc(C(=O)Nc2c(NC(=O)CCl)ccc3c2C(=O)c2ccccc2C3=O)cc1 [CC-12, 1-(4-methylbenzamido)-2-(chloroacetamido)-anthraquinone] | −57.05 | −92.86 | 109.55 | 11.30 | 130.52 | −44.02 | 95.65 | −85.89 | −50.22 | 95.05 | −25.30 | 42.91 | 123.78 | 3.37 | −19.53 | −46.88 | −1.96 | −43.27 | 34.52 | 24.67 | Growth Percent (COLO 205): −53.43%; Growth Percent (NCI/ADR-RES): 72.17%; drug-resistance against adriamycin (ADR) (NCI/ADR-RES): possessed drug-resistance against adriamycin (ADR); Growth Percent (MDA-MB-435): 4.82%; growth-inhibiting effect against cancer cells, by cancer type [1]: exhibited growth-inhibiting effect against cancer cells such as leukemia, non-small cell lung cancer, colon cancer, central nervous system (CNS) cancer, melanoma, ovarian cancer, renal cancer, prostate cancer, breast cancer; Growth Percent (A549/ATCC): −81.71%; Growth Percent (PC-3): 6.81%; Growth Percent (SN12C): −81.02%; Growth Percent (MDA-MB-468): −83.42%; Growth Percent (MOLT-4): −23.17%
O=C(CCl)Nc1ccc2c(c1NC(=O)Cc1ccccc1)C(=O)c1ccccc1C2=O [CC-23, 1-[2-(phenyl)acetylamino]-2-(chloroacetamido)-anthraquinone] | 36.29 | 86.38 | 119.04 | 97.26 | 120.81 | 66.17 | 104.50 | 64.75 | 68.55 | 104.38 | 80.49 | 58.19 | 91.79 | 88.84 | 80.59 | 41.36 | 73.78 | 83.41 | 80.40 | 82.04 | Growth Percent (CCRF-CEM): 33.97%; Growth Percent (NCI/ADR-RES): 86.87%; drug-resistance against adriamycin (ADR) (NCI/ADR-RES): possessed drug-resistance against adriamycin (ADR); Growth Percent (MDA-MB-435): 80.40%; growth-inhibiting effect against cancer cells, by cancer type [1]: could inhibit the cancer cell growth of leukemia and melanoma; Growth Percent (SN12C): 79.93%; Growth Percent (MDA-MB-468): 51.02%; Growth Percent (MOLT-4): 11.40%; Growth Percent (HCC-2998): 94.74%

Reference: patent US8530465B2, “1, 2-disubstituted amido-anthraquinone derivatives, preparation method and application thereof” (National Defense Medical Center, priority 2010, dated 2013)
